Assay results as given in PMC6364417, “Kinase inhibitor library screening identifies synergistic drug combinations effective in sensitive and resistant melanoma cells” (Journal of Experimental & Clinical Cancer Research : CR, 2019).

Columns and labels:
Assay in all cases: Kinase inhibitor library screening, PrestoBlue cell viability, 1 or 10 μM, 72 h
[1] = system: 501Mel-GP cells (Dabrafenib-resistant)
Method: (§1) After 72 h of treatment, cell viability was assessed using the PrestoBlue Cell Viability Reagent (ThermoFisher Scientific). Measurements were performed with the CLARIOstar Monochromator microplate reader (BMG Labtech).
(§2) Kinase inhibitor library screening. […] Each cell line was treated in its sensitive form (parental), and also as 2 resistant derivatives, which were made resistant to either Vemurafenib (XP) or Dabrafenib (GP). Drugs were added at 2 different concentrations, 1 and 10 μM, for 72 h and cell viability was assessed using the PrestoBlue Cell Viability assay. Results are depicted as % viability compared to untreated cells. Each cell line was analyzed at least in duplicate. […] (XLSX 95 kb)

501Mel cells (parental) = system: 501Mel cells (parental)
Method: as §1, §2

IGR37 cells (parental) = system: IGR37 cells (parental)
Method: as §1, §2

[2] = system: A375-GP cells (Dabrafenib-resistant)
Method: as §1, §2

[3] = system: A375-XP cells (Vemurafenib-resistant)
Method: as §1, §2

[4] = system: IGR37-XP cells (Vemurafenib-resistant)
Method: as §1, §2

[5] = system: IGR37-GP cells (Dabrafenib-resistant)
Method: as §1, §2

[6] = system: 501Mel-XP cells (Vemurafenib-resistant)
Method: as §1, §2

A375 cells (parental) = system: A375 cells (parental)
Method: as §1, §2

SMILES: O=C1NC(=O)C(c2ccccc2[N+](=O)[O-])=C1Nc1ccc(O)c(Cl)c1 [SB 415286]
- cell viability, 501Mel GP, 1μΜ ([1]; 501Mel GP, 1μΜ, 72 h, in %): 100.2
- cell viability, 501Mel GP, 10μΜ ([1]; 501Mel GP, 10μΜ, 72 h, in %): 76.0
- cell viability, 501Mel Parental, 1μΜ (501Mel cells (parental); 501Mel Parental, 1μΜ, 72 h, in %): 94.3
- cell viability, 501Mel Parental, 10μΜ (501Mel cells (parental); 501Mel Parental, 10μΜ, 72 h, in %): 76.0
- cell viability, IGR37 Parental, 1μΜ (IGR37 cells (parental); IGR37 Parental, 1μΜ, 72 h, in %): 102.6
- cell viability, A375 GP, 1μΜ ([2]; A375 GP, 1μΜ, 72 h, in %): 95.9
- cell viability, A375 GP, 10μΜ ([2]; A375 GP, 10μΜ, 72 h, in %): 86.4
- cell viability, A375 XP, 1μΜ ([3]; A375 XP, 1μΜ, 72 h, in %): 100.0
- cell viability, A375 XP, 10μΜ ([3]; A375 XP, 10μΜ, 72 h, in %): 92.8
- cell viability, IGR37 XP, 10μΜ ([4]; IGR37 XP, 10μΜ, 72 h): 85.4%
- cell viability, IGR37 XP, 1μΜ ([4]; IGR37 XP, 1μΜ, 72 h, in %): 98.9
- cell viability, IGR37 GP, 10μΜ ([5]; IGR37 GP, 10μΜ, 72 h): 93.7%
- cell viability, IGR37 GP, 1μΜ ([5]; IGR37 GP, 1μΜ, 72 h, in %): 94.9
- cell viability, 501Mel XP, 1μΜ ([6]; 501Mel XP, 1μΜ, 72 h, in %): 92.5
- cell viability, 501Mel XP, 10μΜ ([6]; 501Mel XP, 10μΜ, 72 h, in %): 76.3
- cell viability, A375 Parental, 1μΜ (A375 cells (parental); A375 Parental, 1μΜ, 72 h, in %): 99.8
- cell viability, A375 Parental, 10μΜ (A375 cells (parental); A375 Parental, 10μΜ, 72 h, in %): 78.1

SMILES: O=C(NCc1ccccc1)c1csc(Nc2ccncn2)n1 [Thiazovivin]
- cell viability (kinase inhibitor library screening) ([1]; 501Mel GP, 1μΜ, in %): 104.3
- cell viability (kinase inhibitor library screening) ([1]; 501Mel GP, 10μΜ, in %): 43.8
- cell viability (kinase inhibitor library screening) (501Mel cells (parental); 501Mel Parental, 1μΜ, in %): 107.2
- cell viability (kinase inhibitor library screening) (501Mel cells (parental); 501Mel Parental, 10μΜ, in %): 76.8
- cell viability (kinase inhibitor library screening) (IGR37 cells (parental); IGR37 Parental, 1μΜ, in %): 97.5
- cell viability (kinase inhibitor library screening) (IGR37 cells (parental); IGR37 Parental, 10μΜ, in %): 89.5
- cell viability (kinase inhibitor library screening) ([2]; A375 GP, 1μΜ, in %): 96.7
- cell viability (kinase inhibitor library screening) ([2]; A375 GP, 10μΜ, in %): 87.9
- cell viability (kinase inhibitor library screening) ([3]; A375 XP, 10μΜ, in %): 107.7
- cell viability (kinase inhibitor library screening) ([4]; IGR37 XP, 1μΜ, in %): 98.5
- cell viability (kinase inhibitor library screening) ([4]; IGR37 XP, 10μΜ, in %): 87.0
- cell viability (kinase inhibitor library screening) ([5]; IGR37 GP, 1μΜ, in %): 92.4
- cell viability (kinase inhibitor library screening) ([5]; IGR37 GP, 10μΜ, in %): 93.5
- cell viability (kinase inhibitor library screening) ([6]; 501Mel XP, 10μΜ, in %): 28.9
- cell viability (kinase inhibitor library screening) (A375 cells (parental); A375 Parental, 1μΜ, in %): 103.7
- cell viability (kinase inhibitor library screening) (A375 cells (parental); A375 Parental, 10μΜ, in %): 81.8

SMILES: C=CC(=O)Nc1cccc(Oc2nc(Nc3ccc(N4CCN(C)CC4)cc3OC)ncc2Cl)c1 [WZ4002]
- viability at 1 µM ([1]; Homo sapiens, 72 h, read-out: cell viability, 501Mel GP, 1μΜ): 109%
- viability at 10 µM ([1]; Homo sapiens, 72 h, read-out: cell viability, 501Mel GP, 10μΜ): -0.074%
- viability at 1 µM (501Mel cells (parental); Homo sapiens, 72 h, read-out: cell viability, 501Mel Parental, 1μΜ): 107%
- viability at 10 µM (501Mel cells (parental); Homo sapiens, 72 h, read-out: cell viability, 501Mel Parental, 10μΜ): -0.0492%
- viability at 1 µM (IGR37 cells (parental); Homo sapiens, IGR-37, 72 h, read-out: cell viability, IGR37 Parental, 1μΜ): 101%
- viability at 10 µM (IGR37 cells (parental); Homo sapiens, IGR-37, 72 h, read-out: cell viability, IGR37 Parental, 10μΜ): 2%
- viability at 1 µM ([2]; Homo sapiens, A-375, 72 h, read-out: cell viability, A375 GP, 1μΜ): 96.3%
- viability at 10 µM ([2]; Homo sapiens, A-375, 72 h, read-out: cell viability, A375 GP, 10μΜ): 3.9%
- viability at 1 µM ([3]; Homo sapiens, A-375, 72 h, read-out: cell viability, A375 XP, 1μΜ): 104%
- viability at 10 µM ([3]; Homo sapiens, A-375, 72 h, read-out: cell viability, A375 XP, 10μΜ): 6%
- viability at 1 µM ([4]; Homo sapiens, IGR-37, 72 h, read-out: cell viability, IGR37 XP, 1μΜ): 85.2%
- viability at 10 µM ([4]; Homo sapiens, IGR-37, 72 h, read-out: cell viability, IGR37 XP, 10μΜ): 1.4%
- viability at 1 µM ([5]; Homo sapiens, IGR-37, 72 h, read-out: cell viability, IGR37 GP, 1μΜ): 91.8%
- viability at 10 µM ([5]; Homo sapiens, IGR-37, 72 h, read-out: cell viability, IGR37 GP, 10μΜ): 16.7%
- viability at 1 µM ([6]; Homo sapiens, 72 h, read-out: cell viability, 501Mel XP, 1μΜ): 104%
- viability at 10 µM ([6]; Homo sapiens, 72 h, read-out: cell viability, 501Mel XP, 10μΜ): -0.3%
- viability at 1 µM (A375 cells (parental); Homo sapiens, A-375, 72 h, read-out: cell viability, A375 Parental, 1μΜ): 103%
- viability at 10 µM (A375 cells (parental); Homo sapiens, A-375, 72 h, read-out: cell viability, A375 Parental, 10μΜ): 23.8%

SMILES: Cc1nc(N)sc1-c1ccnc(Nc2ccc(N3CCOCC3)cc2)n1 [CYC116]
- cell viability (kinase inhibitor library screening) ([1]; 501Mel GP, 1μΜ, 72 h): 104.5%
- cell viability (kinase inhibitor library screening) ([1]; 501Mel GP, 10μΜ, 72 h): 44.7%
- cell viability (kinase inhibitor library screening) (501Mel cells (parental); 501Mel Parental, 1μΜ, 72 h): 99.4%
- cell viability (kinase inhibitor library screening) (501Mel cells (parental); 501Mel Parental, 10μΜ, 72 h): 67.9%
- cell viability (kinase inhibitor library screening) (IGR37 cells (parental); IGR37 Parental, 1μΜ, 72 h): 94.2%
- cell viability (kinase inhibitor library screening) (IGR37 cells (parental); IGR37 Parental, 10μΜ, 72 h): 59.4%
- cell viability (kinase inhibitor library screening) ([2]; A375 GP, 1μΜ, 72 h): 52.0%
- cell viability (kinase inhibitor library screening) ([2]; A375 GP, 10μΜ, 72 h): 33.0%
- cell viability (kinase inhibitor library screening) ([3]; A375 XP, 1μΜ, 72 h): 75.4%
- cell viability (kinase inhibitor library screening) ([3]; A375 XP, 10μΜ, 72 h): 46.7%
- cell viability (kinase inhibitor library screening) ([4]; IGR37 XP, 1μΜ, 72 h): 98.8%
- cell viability (kinase inhibitor library screening) ([4]; IGR37 XP, 10μΜ, 72 h): 26.5%
- cell viability (kinase inhibitor library screening) ([5]; IGR37 GP, 1μΜ, 72 h): 92.1%
- cell viability (kinase inhibitor library screening) ([5]; IGR37 GP, 10μΜ, 72 h): 50.1%
- cell viability (kinase inhibitor library screening) ([6]; 501Mel XP, 1μΜ, 72 h): 94.4%
- cell viability (kinase inhibitor library screening) ([6]; 501Mel XP, 10μΜ, 72 h): 30.0%
- cell viability (kinase inhibitor library screening) (A375 cells (parental); A375 Parental, 10μΜ, 72 h): 33.9%
- cell viability (kinase inhibitor library screening) (A375 cells (parental); A375 Parental, 1μΜ, 72 h): 54.1%
